{"source": "patent US12187726B1", "about": "“Imidazo[1,5-a]pyrido[4,3-e]pyrazines as CK2 inhibitors” (KING FAISAL UNIVERSITY, priority 2024, dated 2025)", "key": {"[1]": {"tested_on": "PC3 (prostate) cancer cells", "test": "MTT in vitro cytotoxic activity assay, PC3", "type": "cell-based", "conditions": "Homo sapiens; cells exposed for 96 hours; 50% inhibition of cell proliferation; read-out: Cytotoxicity activity IC50, PC3 (prostate)", "experimental": "(§1) Compounds 1-16 were screened for their in vitro cytotoxic activity utilizing a 3-(4,5-dimethyl-thiazol-2-yl)-2,5-diphenyltetrazolium bromide (MTT) assay against selected cancer human cell lines consisting of PC3 (prostate), HCT116 (colon), A375 (melanoma), H1299 (lung), MIAPaCa-2 (pancreas), HL60 (leukemia), MCF7 (breast), MDA-MB-231 (breast) (T. Mosmann, J. Immunol. Meth., 1983, 65, 55-63). The cells were cultured at 37° C. in RMPI1640 medium supplemented with 10% fetal bovine serum, 50 IU/mL penicillin, and 50 μg/mL streptomycin in a 5% CO2 incubator. All cells were sub-cultured 3 times/week by trypsinisation. Viable cells were seeded and allowed to adhere for 12 hours before a test drug was added in 96-well plates at an initial density of 1.0×10^5 cells/mL. Tumor cell lines were separately exposed to various concentrations of the tested compounds followed by incubation at a temperature of 37° C. during 96 hours inside a medium of fresh RMPI 1640. Cells were subsequently incubated at 37° C. using MTT at 0.5 mg/mL during 4 hours. After removal of supernatant, formazan crystals were dissolved in isopropanol and the optical density was measured at 570 nm. CX-4945 was used as a positive control."}, "[2]": {"tested_on": "HCT116 (colon) cancer cells", "test": "MTT in vitro cytotoxic activity assay, HCT116", "type": "cell-based", "conditions": "Homo sapiens, HCT-116; cells exposed for 96 hours; 50% inhibition of cell proliferation; read-out: Cytotoxicity activity IC50, HCT116 (colon)", "experimental": "as §1"}, "[3]": {"tested_on": "A375 (melanoma) cancer cells", "test": "MTT in vitro cytotoxic activity assay, A375", "type": "cell-based", "conditions": "Homo sapiens, A-375; cells exposed for 96 hours; 50% inhibition of cell proliferation; read-out: Cytotoxicity activity IC50, A375 (melanoma)", "experimental": "as §1"}, "[4]": {"tested_on": "H1299 (lung) cancer cells", "test": "MTT in vitro cytotoxic activity assay, H1299", "type": "cell-based", "conditions": "Homo sapiens, NCI-H1299; cells exposed for 96 hours; 50% inhibition of cell proliferation; read-out: Cytotoxicity activity IC50, H1299 (lung)", "experimental": "as §1"}, "[5]": {"tested_on": "MIAPaCa-2 (pancreas) cancer cells", "test": "MTT in vitro cytotoxic activity assay, MIAPaCa-2", "type": "cell-based", "conditions": "Homo sapiens, MIA PaCa-2; cells exposed for 96 hours; 50% inhibition of cell proliferation; read-out: Cytotoxicity activity IC50, MIAPaCa-2 (pancreas)", "experimental": "as §1"}, "[6]": {"tested_on": "HL60 (leukemia) cancer cells", "test": "MTT in vitro cytotoxic activity assay, HL60", "type": "cell-based", "conditions": "Homo sapiens, HL-60; cells exposed for 96 hours; 50% inhibition of cell proliferation; read-out: Cytotoxicity activity IC50, HL60 (leukemia)", "experimental": "as §1"}, "[7]": {"tested_on": "MCF7 (breast) cancer cells", "test": "MTT in vitro cytotoxic activity assay, MCF7", "type": "cell-based", "conditions": "Homo sapiens, cells exposed for 96 hours, 50% inhibition of cell proliferation, read-out: Cytotoxicity activity IC50, MCF7 (breast)", "experimental": "as §1"}, "[8]": {"tested_on": "MDA-MB-231 (breast) cancer cells", "test": "MTT in vitro cytotoxic activity assay, MDA-MB-231", "type": "cell-based", "conditions": "Homo sapiens, cells exposed for 96 hours, 50% inhibition of cell proliferation, read-out: Cytotoxicity activity IC50, MDA-MB-231 (breast)", "experimental": "as §1"}, "[9]": {"target": "T1, recombinant human CK2 (RRββ-holoenzyme) (Homo sapiens, UniProt P68400)", "T1 construct": "purchased Millipore", "T1 sequence (P68400 whole entry)": "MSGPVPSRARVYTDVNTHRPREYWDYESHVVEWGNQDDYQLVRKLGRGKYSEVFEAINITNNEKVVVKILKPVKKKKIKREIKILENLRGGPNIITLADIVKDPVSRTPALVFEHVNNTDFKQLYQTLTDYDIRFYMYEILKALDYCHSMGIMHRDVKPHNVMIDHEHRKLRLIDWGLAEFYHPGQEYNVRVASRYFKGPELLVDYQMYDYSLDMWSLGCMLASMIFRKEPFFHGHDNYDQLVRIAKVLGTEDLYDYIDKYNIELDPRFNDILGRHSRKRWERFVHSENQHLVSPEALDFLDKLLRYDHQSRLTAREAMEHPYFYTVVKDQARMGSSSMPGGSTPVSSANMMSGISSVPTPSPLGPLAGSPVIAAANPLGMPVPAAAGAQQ", "T1 sequence (P67870 whole entry partner)": "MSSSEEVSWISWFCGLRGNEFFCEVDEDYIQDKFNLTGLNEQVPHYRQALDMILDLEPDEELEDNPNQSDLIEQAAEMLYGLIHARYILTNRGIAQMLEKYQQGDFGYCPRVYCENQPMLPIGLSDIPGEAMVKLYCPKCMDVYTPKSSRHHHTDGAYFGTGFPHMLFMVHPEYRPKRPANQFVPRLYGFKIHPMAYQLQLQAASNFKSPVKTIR", "test": "CK2 Kinase Assay (33P-ATP, filter plate)", "type": "biochemical", "conditions": "final ATP concentration 15 μM; 10 min at 30° C.; read-out: protein kinase CK2 IC50", "experimental": "CK2 Kinase Assay was conducted using the protocol as described in Pierre F. et al; J. Med. Chem. 2011, 54, 635-654. The tested compounds in aqueous solution were added at a volume of 10 μL to a reaction mixture comprising 10 μL of assay dilution buffer (ADB; 20 mM MOPS, pH 7.2, 25 mM β-glycerol phosphate, 5 mM EGTA, 1 mM sodium orthovanadate, and 1 mM dithiothreitol), 10 μL of substrate peptide (RRRDDDSDDD, dissolved in ADB at a concentration of 1 mM), 10 μL of recombinant human CK2 (RRββ-holoenzyme, 25 ng dissolved in ADB; Millipore). Reactions were initiated by the addition of 10 μL of ATP solution (90% 75 mMMgCl2, 75 μM ATP (final ATP concentration: 15 μM) dissolved in ADB; 10% [γ-33P] ATP (stock 1mCi/100 μL; 3000 Ci/mmol (Perkin-Elmer) and maintained for 10 min at 30° C. The reactions were quenched with 100 μL of 0.75% phosphoric acid and then transferred to and filtered through a phosphor cellulose filter plate (Millipore). After washing each well five times with 0.75% phosphoric acid, the plate was dried under vacuum for 5 min and, following the addition of 15 μL of scintillation fluid to each well, the residual radioactivity was measured using a Wallac luminescence counter. The IC50 values were derived from eight concentrations of test inhibitors."}}, "data": [{"smiles": "O=C(O)c1ncn2c1c(Nc1cccc(Cl)c1)nc1ccncc12", "note": "[Compound 1, 4-((3-chlorophenyl)amino) imidazo[1,5-a]pyrido[4,3-e]pyrazine-3-carboxylic acid]", "values": [{"measurement": "IC50", "setting": "[1]", "result": 2.1, "unit": "µM"}, {"measurement": "IC50", "setting": "[2]", "result": 1.8, "unit": "µM"}, {"measurement": "IC50", "setting": "[3]", "result": 3.3, "unit": "µM"}, {"measurement": "IC50", "setting": "[4]", "result": 2.5, "unit": "µM"}, {"measurement": "IC50", "setting": "[5]", "result": 1.1, "unit": "µM"}, {"measurement": "IC50", "setting": "[6]", "result": 2.6, "unit": "µM"}, {"measurement": "IC50", "setting": "[7]", "result": 5.9, "unit": "µM"}, {"measurement": "IC50", "setting": "[8]", "result": 5.2, "unit": "µM"}, {"measurement": "IC50", "setting": "[9]", "result": 0.036, "unit": "µM"}]}]}
